The values that follow come from the METLIN SMRT retention time set (Domingo-Almenara et al. 2019).

The series in a line: gradient 5% acetonitrile 3 min, to 50% in 2 min, to 85% in 15 min, held 3 min, 100 µL/min. Particulars: column: Zorbax Extend-C18 2.1 x 50 mm; eluents: water / acetonitrile, 0.1% formic acid. Summed up:
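In both positive and negative ionization mode, a quadrupole time-of-flight mass spectrometer coupled to HPLC analyzed pure standards run in mixtures of ~100 molecules. The Zorbax Extend-C18 column (2.1 × 50 mm, 1.8 μm) was operated at 100 μL/min with water and acetonitrile, each containing 0.1% formic acid. The dead volume was 40 μL and the dwell volume 900 μL. Retention time came from adduct peaks that were computationally picked and individually inspected by hand.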
`Cc1cccc(Nc2c(-c3cccc(O)c3)nc3cnccn23)c1C` gave an RP-LC retention time of 816 s. To `CCc1ccc(CNC(=O)CCc2nc(N3CCCC3)c3c(C)noc3n2)cc1` belongs 865 s; to `CN1CCN(c2ccc(-c3cccc(NC(=O)c4ccccc4F)c3)nn2)CC1`, 693 s. Turning to `O=C1CN(S(=O)(=O)c2cccc(C(F)(F)F)c2)CC2(CCCCC2)N1C1CCCC1`, the RP-LC retention time is 1250 s. Consider `CCC(=O)N1CCc2cc(N3CC(C(=O)NC4CC4)CC3=O)ccc21` (configuration not stated), for which the RP-LC retention time stood at 620 s.

Compound `CCOc1ccc(-c2noc(CN3N=NC4C(=O)N(c5cccc(OC)c5)C(=O)C43)n2)cc1OC` (configuration not stated) had an RP-LC retention time of 917 s.

`Cc1ccc(NC(=O)N2CCCC2c2nc(-c3cccc(F)c3)no2)cc1` (configuration not stated) yielded an RP-LC retention time of 1010 s. With `CCc1noc(NC(C)=O)c1-c1ccc(C)c(S(=O)(=O)N2CCC(C)CC2)c1` the figure was 929 s; with `Cc1ccccc1-c1noc(N2CCC(C(=O)N3CCOCC3)CC2)n1`, 796 s; with `CC(C)(O)CC[C@@H](O)[C@@](C)(O)[C@H]1CC[C@@]2(O)C3=CC(=O)[C@@H]4C[C@@H](O)[C@@H](O)C[C@]4(C)[C@H]3CC[C@]12C`, 607 s. In the case of `COc1ccc(-c2nnc(Cc3nc(-c4cccnc4)no3)o2)cc1`, the RP-LC retention time came out at 755 s. On to `COC(=O)c1ccc(N2C=C(C(=O)N3CCCC3)S(=O)(=O)c3ccc(Cl)cc32)cc1`, for which the RP-LC retention time is 842 s.

With `O=C1CN(S(=O)(=O)c2ccc(F)c(Cl)c2)CC2(CCCCC2)N1C1CCCC1`, the RP-LC retention time came out at 1240 s. With `Cc1noc(C)c1CN1CCN(C(=O)Cc2ccccc2Cl)CC1` the figure was 563 s; with `Cc1ccc(-n2nc3c(=O)n(CCCC(=O)NC4CCCC4)nc(C)c3c2C)cc1`, 797 s. Turning to `O=C(NC1CCN(Cc2ccccc2)CC1)C1CCN(c2cnc3nccnc3c2)CC1`, the RP-LC retention time stood at 570 s. `FC(F)(F)c1nc2ccccc2n1CC1CCN(Cc2cn3ccccc3n2)CC1` registered an RP-LC retention time of 557 s. With `Cc1cc(N2C=C(C(=O)N3CCOCC3)S(=O)(=O)c3ccc(F)cc32)ccc1Br` the figure was 892 s; with `O=C(NC1CCCCC1NC(=O)c1cccs1)c1cccs1` (configuration not stated), 728 s; with `Cc1nc(-c2ccc(C(=O)N3CCCC3)cc2)no1`, 675 s. To `NC(=O)c1cn(Cc2c(F)cccc2F)nn1` belongs 684 s; to `O=C(CCc1c(-c2ccc(Cl)cc2)nc2ccccn12)NCc1cccnc1`, 570 s; to `O=S(=O)(Cc1cccc(Cl)c1)N1CCc2nc(-c3ccc(Cl)cc3)ncc2C1`, 1210 s. Consider `COCCn1c(CCCC(=O)Nc2ccc(Cl)cc2)nc2cccnc21`, for which the RP-LC retention time was found to be 693 s. To `COc1cccc(NC(=O)Cn2c(C)nc3c(sc4nc(-c5ccccc5)ccc43)c2=O)c1` belongs 1090 s; to `COc1cccc(S(=O)(=O)NCc2cccnc2-c2ccc(C)cc2)c1`, 695 s. To `CCOC(=O)C1CCN(C(=O)C2CCN(S(=O)(=O)c3ccc4c(c3)CCCC(=O)N4)CC2)CC1` belongs 713 s; to `O=C(Cc1ccc([N+](=O)[O-])cc1)NCc1nnnn1-c1ccc(F)cc1`, 701 s. With `CCc1ccc(S(=O)(=O)c2cnc(N3CCN(c4ccccc4)CC3)nc2N)cc1` the figure was 1140 s. Compound `O=C(Nc1c(-c2ccc(F)cc2)nc2ccccn12)c1ccc2ccccc2c1` gave an RP-LC retention time of 752 s. As for `O=C(O)CC(CC(=O)NCc1ccccc1)c1ccc(Br)cc1` (configuration not stated), the RP-LC retention time worked out at 712 s. `O=C(CC1CCN(C(=O)C2CCCCC2)CC1)NCCc1c[nH]c2ccc(Cl)cc12` displayed an RP-LC retention time of 871 s. To `COc1ccc(C2(C(=O)N3CCN(S(=O)(=O)c4c(C)nn(C)c4C)CC3)CC2)cc1` belongs 754 s; to `CCn1c(C)c(-c2nc(C3CC3)no2)c(S(=O)(=O)N2CCC(C)CC2)c1C`, 904 s; to `CCCc1nnc(NC(=O)C2CCN(C(=O)c3ccc(F)cc3)CC2)s1`, 721 s. For the compound `C=CCN1C(=O)COc2ccc(-c3nc(NC(=O)c4cccs4)sc3C)cc21`, the RP-LC retention time was 998 s. To `Cc1cccnc1NC(=O)c1csnn1` belongs 637 s. With `CCCN1C(=O)c2c(C(=O)NCc3ccccc3C)ncn2CC1(C)C(=O)NCCC(C)C` (configuration not stated) the figure was 883 s; with `O=C(C1CCC1)N1CCc2c([nH]c3ccccc23)C1c1ccc(Cl)cc1` (configuration not stated), 1230 s; with `CCc1nc(-c2cc(S(=O)(=O)N3CCC(C(=O)NCc4cccs4)CC3)c(C)s2)no1`, 967 s. `Cc1c(Cl)cccc1NC(=O)Cn1nc2c3cc(F)ccc3ncn2c1=O` displayed an RP-LC retention time of 677 s. With `CCc1cc(=O)n(CC(=O)N2CCCc3ccccc32)c(-n2nc(C)cc2C)n1` the figure was 993 s. Compound `O=C(Nc1ccc(C(F)(F)F)cc1)C1CCCN(S(=O)(=O)c2c[nH]c(C(=O)N3CCCC3)c2)C1` (configuration not stated) registered an RP-LC retention time of 908 s. With `Cc1cc2nn(CC(=O)Nc3ccccc3F)c(=O)n2c(Nc2ccc(F)cc2)n1` the figure was 967 s; with `O=C(NC1CC1)c1ccc(N2CCC(NCc3ccc(Cl)cc3)C2)nc1` (configuration not stated), 574 s. To `COc1ccccc1NC(=O)N1CCC(CNC(=O)c2cc(Cl)ccc2Cl)CC1` belongs 811 s. To `CN(CCc1noc(COc2ccccc2F)n1)C(=O)c1cccs1` belongs 835 s. `COc1ccc2[nH]c(=O)c(CCC(=O)NCc3ccc(OC)c(OC)c3)cc2c1` yielded an RP-LC retention time of 648 s. In the case of `CCCN1C(=O)COc2cc(-c3noc(C(=O)NC4CCCC4)n3)ccc21`, the RP-LC retention time was determined as 977 s. In the case of `Cc1ccc(NC(=O)N2CCc3[nH]cnc3C2c2ccncc2)cc1C` (configuration not stated), the RP-LC retention time turned out to be 582 s. `Cc1nc(C(=O)Nc2ccc(F)c(C)c2)c(C)o1`: the RP-LC retention time was 918 s. With `Cc1nn(-c2ccc(-c3ccccc3)nn2)c(C)c1S(=O)(=O)NCc1ccc(F)cc1F` the figure was 990 s; with `O=C([C@@H]1C[C@H](Oc2cccnc2)CN1C(=O)c1ccoc1)N1CCCC1`, 553 s; with `COc1ccc(CNC(=O)NCCc2cn(C)c3ncccc23)cc1`, 649 s. To `COc1ccc(-c2nc(C)cc(C)c2CNS(=O)(=O)c2cccc(C)c2)cc1` belongs 668 s; to `CC(C)CNC(=O)CCc1nc2ccccc2n(CC(=O)NCc2ccc3c(c2)OCO3)c1=O`, 748 s; to `Cc1cc(-c2nnc(NC(=O)C(C)(C)Oc3ccc(Cl)cc3)o2)c(C)o1`, 955 s.

For `O=C(Nc1ccc(Nc2ccncc2)cc1)c1ccc(Nc2ccnc3ccc([N+](=O)[O-])cc23)cc1[N+](=O)[O-]`, the RP-LC retention time worked out at 651 s. With `Cc1ccc2c(c1)N(S(C)(=O)=O)CCC(C(=O)Nc1cccc(C)c1C)O2` (configuration not stated) the figure was 945 s. With `COc1cccc(NC(=O)Cn2c3ccccc3n3c(=O)cc(-c4ccc(F)cc4)nc23)c1` the figure was 961 s; with `CCc1onc(C)c1C1CCCN1C(=O)Cc1ccccc1F` (configuration not stated), 823 s.

With `O=C(Cn1cccc(-c2nc(-c3ccc(Br)cc3)no2)c1=O)N1CCCc2ccccc21`, the RP-LC retention time came out at 1070 s. Take `COc1ccc(CCNC(=O)C2CCCN(c3ncnc4c3nc3n4CCCCC3)C2)c(OC)c1` (configuration not stated): the RP-LC retention time worked out at 778 s. Compound `O=C(Nc1c(-c2ccccc2)nc2ccccn12)c1ccc(Cl)cc1Cl` registered an RP-LC retention time of 677 s. With `O=C(CC1c2ncccc2C(=O)N1c1ccccc1)N1CCN(C2CCCCC2)CC1` (configuration not stated) the figure was 591 s. In turn, `Cc1ccc(-c2nnc(-c3nn(C)c4c3CN(S(=O)(=O)c3c(C)cc(C)cc3C)CC4)o2)cc1` yielded an RP-LC retention time of 1160 s. The compound `COC(=O)C1=C(CN2CCOCC2)NC(=O)NC1c1ccc(Cl)cc1` (configuration not stated) returned an RP-LC retention time of 566 s. `Cc1ccc(CNc2nc(-c3ccc(Cl)cc3)nc3ccccc23)o1` came in with an RP-LC retention time of 865 s.

Consider `CCC(C)(C)NS(=O)(=O)c1ccc(-c2c(C)noc2C)cc1`, for which the RP-LC retention time turned out to be 939 s. In turn, `COc1ccc(NC(=O)N2CCCC2C(=O)Nc2ccc(C)c(Cl)c2)cc1` (configuration not stated) gave an RP-LC retention time of 880 s. `CCCN(CC1CCOC1)C(=O)c1cc(C)cc(C)c1` (configuration not stated) yielded an RP-LC retention time of 868 s.

As for `COCCNCc1ccc(-c2ccc(Br)cc2)o1`, the RP-LC retention time stood at 674 s. With `COc1ccc(NC(=O)c2cn(-c3cc(N4CCCC(C)C4)ncn3)cn2)c(OC)c1` (configuration not stated) the figure was 1170 s; with `Cc1ccc(C(=O)N2C[C@@H]3C[C@H]2C[C@@H]3NS(=O)(=O)c2cccnc2)cc1F`, 716 s; with `Cc1nc([N+](=O)[O-])c(N2CCCC2)n1Cc1ccccc1`, 817 s.

On to `O=C1COc2ccc(-c3csc(NC(=O)C4CCCO4)n3)cc2N1` (configuration not stated), for which the RP-LC retention time is 715 s.

As for `CCCn1c(=O)c2cc(C(=O)N3CCN(c4ccc(OC)cc4)CC3)nn2c2ccccc21`, the RP-LC retention time came to 862 s.
